# Earlier results, collected in patent EP4628546A1, “CYANINE DIMERS FOR PHOTOTHERMAL TREATMENT OF CANCER GUIDED BY FLUORESCENCE/PHOTOACOUSTIC IMAGING” (Centre National de la Recherche Scientifique, priority 2024, dated 2025).
# Conditions: IR 780 in EtOH, reference value
compound,measurement,value
CCCN1/C(=C/C=C2\CCCC(/C=C/C3=[N+](CCC)c4ccccc4C3(C)C)=C2Cl)C(C)(C)c2ccccc21.[I-] [IR 780],"Φfluo,ref",0.08
